Laboratory results as given in article PMC5519068 (PLoS ONE, 2017).
Read-outs that look alike come from different tables or passages of the source.

Key:
[1] = test system: T1, Fes in MV4-11 and MOLM-14 cells; test: Immunoprecipitation/immunoblot of Fes activation loop phosphorylation (pY713) in AML cells; assay type: cell-based, human; conditions: compound at in vitro IC90 for Fes, 16 h (tandutinib: IC90 for Flt3-ITD, 6 h)
T1 construct: endogenous in cells; host or cells: MV4-11 and MOLM-14
Description: (§1) AML cells (2.5 x 10^6 in 5 mL) were cultured in the presence of kinase inhibitors or DMSO alone for 6 to 16 hours prior to lysis by sonication in RIPA buffer (50 mM Tris-HCl, pH 7.4, 150 mM NaCl, 1 mM EDTA, 1% Triton X-100, 0.1% SDS, 1% sodium deoxycholate) supplemented with 1 mM sodium orthovanadate, 1 mM sodium fluoride, 5 units/ml Benzonase (Novagen), and SigmaFAST EDTA-free protease inhibitor cocktail (Sigma). Flt3 and Fes were immunoprecipitated from 1 mg of cell lysate with 2 μg of antibody and 25 μL of protein G-Sepharose beads (Life Technologies) overnight at 4°C. Immunoprecipitates were washed three times by resuspension in 1.0 ml of RIPA buffer. Immunoprecipitated proteins were separated by SDS-PAGE, transferred to PVDF membranes and probed with the indicated antibodies followed by alkaline phosphatase-linked secondary antibodies. CDP-Star Western Blot Chemiluminescence Reagent (Perkin-Elmer) was used for detection.
(§2) Fes and Flt3 kinase proteins were then immunoprecipitated from cell lysates, followed by immunoblotting with antibodies to phosphotyrosine (pTyr), the Fes activation loop phosphotyrosine (pY713), as well as the Flt3 and Fes proteins.

[2] = test system: Fes in TF-1/Flt3-ITD cells; test: Immunoprecipitation/immunoblot of Fes pY713 in TF-1/Flt3-ITD cells; assay type: cell-based, human; conditions: compound at in vitro IC90 for Fes, 16 h (tandutinib: IC90 for Flt3-ITD, 6 h)
Description: as §1
(§3) Raw fluorescence data were corrected for background and then normalized to cultures grown in the presence of the DMSO carrier solvent. Each condition was performed in triplicate, and results are presented as the mean of the normalized values ± the SD. The resulting dose-response curves were fitted by non-linear regression analysis for estimation of the IC50 values (see Table 2). […] Fes and Flt3 kinase proteins were then immunoprecipitated from cell lysates followed by immunoblotting with antibodies to phosphotyrosine (pTyr), the Fes activation loop phosphotyrosine (pY713), as well as the Flt3 and Fes proteins.

MOLM-14 cells = test: Growth inhibition, CellTiter-Blue viability, 72 h; assay type: cell-based; conditions: Homo sapiens, MOLM-14 (Flt3-ITD+), read-out: Growth Suppression in AML Cell Lines (IC50, nM) MOLM-14
Description: (§4) Cells were seeded at a density of 100,000 cells per 1.0 ml in 48-well culture plates. Compounds were added to various concentrations while holding the DMSO concentration constant at 0.1%. Cell viability was assessed 72 hours later using the CellTiter-Blue Cell Viability assay (Promega) according to the manufacturer’s protocol and a SpectraMax Multi-Mode Microplate Reader (Molecular Devices). IC50 values were determined by non-linear regression analysis of concentration-response curves using the GraphPad PRISM software package (version 6.0). Apoptosis was determined using the same cell culture conditions and the Apo-ONE Homogeneous Caspase-3/7 Assay (Promega) and the manufacturer’s protocol.
(§5) Fig 2 Fes tyrosine kinase inhibitors induce growth arrest in Flt3-ITD^+ AML cell lines. A) The Flt3-ITD^+ cell lines MV4-11, MOLM-13, and MOLM-14, along with THP-1 (wild-type FLT3) were incubated with each of the kinase inhibitors shown over a range of concentrations, and cell viability was measured 72 h later using the CellTiter-Blue Assay (see Materials and methods). Raw fluorescence data were corrected for background and then normalized to cultures grown in the presence of the DMSO carrier solvent. Each assay condition was performed in triplicate, and results are presented as the mean of the normalized values ± the SD. The resulting dose-response curves were fitted by non-linear regression analysis, and the resulting IC50 values are shown in Table 1.

MV4-11 cells = test: Growth inhibition, CellTiter-Blue viability, 72 h; assay type: cell-based; conditions: Homo sapiens, MV4-11 (Flt3-ITD+), read-out: Growth Suppression in AML Cell Lines (IC50, nM) MV4-11
Description: as §4, §5

THP-1 cells = test: Growth inhibition, CellTiter-Blue viability, 72 h; assay type: cell-based; conditions: Homo sapiens, THP-1 (wild-type Flt3), read-out: Growth Suppression in AML Cell Lines (IC50, nM) THP-1
Description: as §4, §5

MOLM-13 cells = test: Growth inhibition, CellTiter-Blue viability, 72 h; assay type: cell-based; conditions: Homo sapiens, MOLM-13 (Flt3-ITD+), read-out: Growth Suppression in AML Cell Lines (IC50, nM) MOLM-13
Description: as §4, §5

Flt3-D835Y kinase domain = target: T2, Flt3-D835Y kinase domain (Homo sapiens, UniProt P36888, D835Y); test: In vitro kinase assay (Z'-LYTE); assay type: biochemical; conditions: for IC50: ATP at Km
T2 construct: Recombinant Flt3-WT, Flt3-ITD, and Flt3-D835Y kinase domain proteins were purchased from Life Technologies; purchased Life Technologies
T2 sequence (P36888 610-943 D835Y limits assumed): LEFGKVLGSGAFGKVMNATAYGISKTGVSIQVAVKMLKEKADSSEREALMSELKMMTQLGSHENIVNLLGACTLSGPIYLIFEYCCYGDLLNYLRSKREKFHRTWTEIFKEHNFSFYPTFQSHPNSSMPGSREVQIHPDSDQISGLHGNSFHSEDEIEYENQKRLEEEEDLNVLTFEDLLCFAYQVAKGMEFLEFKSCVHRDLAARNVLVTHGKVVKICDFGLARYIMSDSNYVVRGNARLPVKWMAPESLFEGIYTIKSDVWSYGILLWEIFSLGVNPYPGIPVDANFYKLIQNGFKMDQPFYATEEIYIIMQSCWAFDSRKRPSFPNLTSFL
Description: (§6) Recombinant protein kinase assays were performed using the FRET-based Z’-LYTE Kinase Assay according to the manufacturer’s instructions (Thermo Fisher Scientific). […] The Tyr-2 peptide was used as substrate for all recombinant kinases. Kinases were preincubated with inhibitors for 30 minutes, followed by addition of ATP and peptide substrate for 1 hour. Reactions were quenched by addition of development reagent, followed by incubation for an additional hour prior to fluorescence measurements on a SpectraMax M5 microplate reader. IC50 values were calculated by non-linear regression analysis of the resulting concentration-response curves using GraphPad PRISM.

Flt3-ITD kinase domain = Flt3-ITD kinase domain (Homo sapiens, UniProt P36888); test: In vitro kinase assay (Z'-LYTE); assay type: biochemical; conditions: ATP at Km
Description: as §6

Flt3-WT kinase domain = target: T3, Flt3-WT kinase domain (Homo sapiens, UniProt P36888); test: In vitro kinase assay (Z'-LYTE); assay type: biochemical; conditions: ATP at Km
T3 construct: Recombinant Flt3-WT, Flt3-ITD, and Flt3-D835Y kinase domain proteins were purchased from Life Technologies; purchased Life Technologies
Description: as §6

[3] = test system: TF-1 cells expressing Flt3-WT; test: Inhibitor sensitivity of TF-1 cell populations, CellTiter-Blue, 72 h; assay type: cell-based
Description: as §4
For each retroviral transduction, TF-1 cells (1 x 10^6) were suspended in 5 mL of undiluted viral supernatant and plated in one well of a 6-well tissue culture dish. Polybrene (Sigma) was added to a final concentration of 4 μg/mL and the TF-1 cells were centrifuged at 1000 x g for 3 hours to enhance retroviral mediated gene transfer. After centrifugation, the virus was removed and replaced with fresh medium.
as §3

[4] = test system: Flt3-ITD in MV4-11 and MOLM-14 cells; test: Immunoprecipitation/immunoblot of Flt3 phosphotyrosine content in AML cells; assay type: cell-based, human; conditions: compound at in vitro IC90 for Fes, 16 h (tandutinib: IC90 for Flt3-ITD, 6 h)
Description: as §1, §2

Structure (SMILES) | Inhibition of Fes activation loop phosphorylation in MV4-11 and MOLM-14 cells [1] | Inhibition of Fes activation loop phosphorylation in TF-1/Flt3-ITD cells [2] | IC50 (MOLM-14 cells) | IC50 (MV4-11 cells) | IC50 (THP-1 cells) | IC50 (MOLM-13 cells) | IC50 (Flt3-D835Y kinase domain) | IC50 (Flt3-ITD kinase domain) | IC50 (Flt3-WT kinase domain) | IC50 ([3]; Homo sapiens, TF-1, 72 h; read-out: Inhibitor sensitivity of TF-1 Cell Populations (IC50, nM) Flt3-WT) | Inhibition of Flt3-ITD phosphotyrosine content in MV4-11 and MOLM-14 cells [4] | Sensitivity of Flt3-D835Y compared to wild-type Flt3 in vitro (Flt3-D835Y kinase domain; in vitro kinase assays) | IC50 ([3]; Homo sapiens, TF-1, 72 h, read-out: Inhibitor sensitivity of TF-1 Cell Populations (IC50, nM) Flt3-WT)
CCN1CCN(Cc2ccc(NC(=O)c3ccc(C)c(Oc4ccnc5[nH]ccc45)c3)cc2C(F)(F)F)CC1 [HG7-92-01] | inhibited Flt3-ITD and Fes in both cell lines | inhibited both Flt3-ITD and Fes | 34 nM | 19 nM | > 3000 nM | 93 nM | 3650 nM | 149 nM | 536 nM | > 1000 nM | inhibited Flt3-ITD and Fes in both cell lines |  | 
COc1cc(N2CCC(O)CC2)ccc1Nc1nc(Nc2ccccc2S(=O)(=O)C(C)C)c2cn[nH]c2n1 [WZ4-49-1] | only inhibited Fes | only inhibited the activity of Fes | 994 nM | 965 nM | > 3000 nM | 884 nM | 642 nM | 1390 nM | 3140 nM |  | only inhibited Fes | about 5 fold | > 3000 nM
